Active and inactive are the calls of the source. The calls are words filed in the database; no cut-off is given here.
How the values were obtained:
[1] = test system: Kluyveromyces marxianus; test: Antifungal activity against Candida kefyr ATCC 46764 at 0.5 ug/ml after 14 to 18 hrs; format: functional; details: read-out: IZ
[2] = test system: Kluyveromyces marxianus; test: Antifungal activity against Candida kefyr ATCC 46764 at 1.5 ug/ml after 14 to 18 hrs; format: functional; details: read-out: IZ
[3] = test system: Kluyveromyces marxianus; test: Antifungal activity against Candida kefyr ATCC 46764 at 3 ug/ml after 14 to 18 hrs; format: functional; details: read-out: IZ
[4] = organism: Homo sapiens; test: Effect on […] level in plasma of transplant patient by MVista microbiological assay; format: functional
[5] = test system: Kluyveromyces marxianus; test: Antifungal activity against Candida kefyr ATCC 46764 after 14 to 18 hrs; format: functional, organism-based

Structure (SMILES)	zone of inhibition at 0.5 µg/mL [1] [mm]	zone of inhibition at 1.5 µg/mL [2] [mm]	zone of inhibition at 3 µg/mL [3] [mm]	Activity [4] [ng/mL]	Activity [5]
C/C=C/C[C@@H](C)[C@@H](O)[C@H]1C(=O)N[C@@H](CC)C(=O)N(C)CC(=O)N(C)[C@@H](CC(C)C)C(=O)N[C@@H](C(C)C)C(=O)N(C)[C@@H](CC(C)C)C(=O)N[C@@H](C)C(=O)N[C@H](C)C(=O)N(C)[C@@H](CC(C)C)C(=O)N(C)[C@@H](CC(C)C)C(=O)N(C)[C@@H](C(C)C)C(=O)N1C [CYCLOSPORINE]	15.5	20.5	23.3		
CC[C@@H]([C@H](C)O)n1ncn(-c2ccc(N3CCN(c4ccc(OC[C@@H]5CO[C@@](Cn6cncn6)(c6ccc(F)cc6F)C5)cc4)CC3)cc2)c1=O [POSACONAZOLE]	16.5	20.6	23.2		
CO[C@H]1C[C@@H]2CC[C@@H](C)[C@@](O)(O2)C(=O)C(=O)N2CCCC[C@H]2C(=O)O[C@H]([C@H](C)C[C@@H]2CC[C@@H](O)[C@H](OC)C2)CC(=O)[C@H](C)/C=C(\C)[C@@H](O)[C@@H](OC)C(=O)[C@H](C)C[C@H](C)/C=C/C=C/C=C/1C [SIROLIMUS]				7.1	
C=CC[C@@H]1/C=C(\C)C[C@H](C)C[C@H](OC)[C@H]2O[C@@](O)(C(=O)C(=O)N3CCCC[C@H]3C(=O)O[C@H](/C(C)=C/[C@@H]3CC[C@@H](O)[C@H](OC)C3)[C@H](C)[C@@H](O)CC1=O)[C@H](C)C[C@@H]2OC [TACROLIMUS ANHYDROUS]				4.2	inactive

From ChEMBL document CHEMBL1153557, “Effect of calcineurin inhibitors on posaconazole blood levels as measured by the MVista microbiological assay” (Antimicrob Agents Chemother, 2008)
